What all share (format): cell-based, murine
One test deals with Ba/F3 EGFR Wild-type (Homo sapiens, UniProt P00533). Briefly: CellTiter-Glo cell viability, Ba/F3 EGFR wild-type cells. Conditions: 72 hours, read-out: Ba/F3 EGFR mutant cell (IC50, nM) WT. In a few lines: (§1)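 Luminescent ATP read-out (CellTiter-Glo) after 72 h compound exposure, 0–2000 nM dilution series. Cells plated 2500/well, dosed 24 h post-seeding. IC50 from luminescence curves.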
In general terms: Cellular ATP, detected with luciferase, serves as a proxy for viable cell number.

The target in test [1] is Ba/F3 EGFR L858R/C797S mutants (Homo sapiens, UniProt P00533, C797S/L858R, cells depend on it). Briefly: CellTiter-Glo cell viability, Ba/F3 EGFR L858R/C797S cells. To be noted: 72 hours, read-out: Ba/F3 EGFR mutant cell (IC50, nM) L/C. A digest of the protocol:
as §1

In test [2] the target is Ba/F3 EGFR L858R/T790M/C797S mutants (Homo sapiens, UniProt P00533, T790M/C797S/L858R, cells depend on it). Briefly: CellTiter-Glo cell viability, Ba/F3 EGFR L858R/T790M/C797S cells. To be noted: 72 hours, read-out: Ba/F3 EGFR mutant cell (IC50, nM) L/T/C. A digest of the protocol: as §1
Test [3] deals with Ba/F3 EGFR Del19/T790M mutants (Homo sapiens, UniProt P00533, T790M, cells depend on it, form not given). Briefly: CellTiter-Glo cell viability, Ba/F3 EGFR Del19/T790M cells. Conditions: 72 hours, read-out: Ba/F3 EGFR mutant cell (IC50, nM) D/T. In a few lines:
as §1

The target of test [4] is Ba/F3 EGFR Del19/C797S mutants (Homo sapiens, UniProt P00533, C797S, cells depend on it, form not given). Briefly: CellTiter-Glo cell viability, Ba/F3 EGFR Del19/C797S cells. Conditions: 72 hours, read-out: Ba/F3 EGFR mutant cell (IC50, nM) D/C. A digest of the protocol: as §1
Test [5] concerns the target Ba/F3 EGFR Del19/T790M/C797S mutants (Homo sapiens, UniProt P00533, T790M/C797S, cells depend on it, form not given). The test can be described thus: CellTiter-Glo cell viability, Ba/F3 EGFR Del19/T790M/C797S cells. To be noted: 72 hours, read-out: Ba/F3 EGFR mutant cell (IC50, nM) D/T/C. A digest of the protocol:
as §1

Sequence of Ba/F3 EGFR L858R/C797S mutants (P00533 whole entry C797S/L858R): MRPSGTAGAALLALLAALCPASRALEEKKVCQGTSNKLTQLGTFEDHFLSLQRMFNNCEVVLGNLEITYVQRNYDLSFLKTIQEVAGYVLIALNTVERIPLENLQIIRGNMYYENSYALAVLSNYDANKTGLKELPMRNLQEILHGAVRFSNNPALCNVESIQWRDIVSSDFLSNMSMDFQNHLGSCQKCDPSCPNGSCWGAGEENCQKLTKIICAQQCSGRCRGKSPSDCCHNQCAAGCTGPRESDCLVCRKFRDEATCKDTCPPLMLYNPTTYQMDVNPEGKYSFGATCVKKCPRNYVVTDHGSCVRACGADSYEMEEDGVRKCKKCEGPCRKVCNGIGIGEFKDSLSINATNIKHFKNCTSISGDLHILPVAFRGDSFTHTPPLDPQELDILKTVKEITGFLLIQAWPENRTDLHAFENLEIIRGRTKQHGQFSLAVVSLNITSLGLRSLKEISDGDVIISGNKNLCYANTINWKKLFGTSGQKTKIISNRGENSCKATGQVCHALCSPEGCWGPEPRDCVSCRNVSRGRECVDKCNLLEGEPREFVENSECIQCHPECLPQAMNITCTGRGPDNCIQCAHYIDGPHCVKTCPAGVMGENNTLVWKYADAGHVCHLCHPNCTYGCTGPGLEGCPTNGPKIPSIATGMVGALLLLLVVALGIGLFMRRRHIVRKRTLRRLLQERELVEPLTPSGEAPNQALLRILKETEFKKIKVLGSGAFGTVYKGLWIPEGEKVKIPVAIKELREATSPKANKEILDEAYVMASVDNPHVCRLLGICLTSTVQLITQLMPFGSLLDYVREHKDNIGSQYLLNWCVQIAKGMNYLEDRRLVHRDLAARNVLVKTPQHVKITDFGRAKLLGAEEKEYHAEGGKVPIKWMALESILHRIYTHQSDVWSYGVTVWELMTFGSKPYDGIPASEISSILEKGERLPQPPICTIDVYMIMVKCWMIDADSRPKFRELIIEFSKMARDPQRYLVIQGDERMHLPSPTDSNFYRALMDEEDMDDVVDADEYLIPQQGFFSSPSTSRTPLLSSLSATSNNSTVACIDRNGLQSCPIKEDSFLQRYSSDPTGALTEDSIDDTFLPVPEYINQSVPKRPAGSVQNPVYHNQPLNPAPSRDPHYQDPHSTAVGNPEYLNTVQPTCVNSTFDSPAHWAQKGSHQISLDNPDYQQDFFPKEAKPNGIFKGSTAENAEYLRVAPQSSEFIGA
Sequence of Ba/F3 EGFR Wild-type (P00533 whole entry, change not shown): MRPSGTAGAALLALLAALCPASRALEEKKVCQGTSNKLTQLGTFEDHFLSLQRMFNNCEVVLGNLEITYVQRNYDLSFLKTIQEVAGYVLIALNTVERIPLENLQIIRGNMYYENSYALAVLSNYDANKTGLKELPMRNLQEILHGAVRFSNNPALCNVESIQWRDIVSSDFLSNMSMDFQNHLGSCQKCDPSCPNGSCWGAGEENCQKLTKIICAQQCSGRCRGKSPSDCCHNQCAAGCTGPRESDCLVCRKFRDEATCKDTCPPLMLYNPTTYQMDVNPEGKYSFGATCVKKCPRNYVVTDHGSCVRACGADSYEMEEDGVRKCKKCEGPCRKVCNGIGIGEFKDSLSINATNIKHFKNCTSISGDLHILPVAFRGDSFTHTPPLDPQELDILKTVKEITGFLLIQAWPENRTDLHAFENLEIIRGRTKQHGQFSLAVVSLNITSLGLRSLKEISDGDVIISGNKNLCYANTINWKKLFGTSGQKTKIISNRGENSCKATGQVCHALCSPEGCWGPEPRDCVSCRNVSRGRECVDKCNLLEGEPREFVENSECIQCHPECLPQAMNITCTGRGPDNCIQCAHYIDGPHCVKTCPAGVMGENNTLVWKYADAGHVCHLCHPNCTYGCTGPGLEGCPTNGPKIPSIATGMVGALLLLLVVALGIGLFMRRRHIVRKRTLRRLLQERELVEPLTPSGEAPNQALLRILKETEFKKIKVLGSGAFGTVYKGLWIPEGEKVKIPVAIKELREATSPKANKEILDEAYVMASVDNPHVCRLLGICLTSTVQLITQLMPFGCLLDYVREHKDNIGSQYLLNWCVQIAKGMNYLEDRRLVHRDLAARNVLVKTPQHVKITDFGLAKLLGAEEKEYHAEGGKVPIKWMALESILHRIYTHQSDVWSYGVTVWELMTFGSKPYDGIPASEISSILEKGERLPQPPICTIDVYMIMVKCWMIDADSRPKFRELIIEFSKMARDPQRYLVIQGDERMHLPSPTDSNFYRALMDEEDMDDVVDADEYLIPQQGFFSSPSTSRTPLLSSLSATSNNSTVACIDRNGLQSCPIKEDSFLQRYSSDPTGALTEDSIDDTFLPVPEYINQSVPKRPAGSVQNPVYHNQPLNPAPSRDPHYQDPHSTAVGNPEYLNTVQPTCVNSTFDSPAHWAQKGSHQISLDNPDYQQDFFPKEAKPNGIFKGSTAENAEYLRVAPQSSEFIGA
Sequence of Ba/F3 EGFR L858R/T790M/C797S mutants (P00533 whole entry T790M/C797S/L858R): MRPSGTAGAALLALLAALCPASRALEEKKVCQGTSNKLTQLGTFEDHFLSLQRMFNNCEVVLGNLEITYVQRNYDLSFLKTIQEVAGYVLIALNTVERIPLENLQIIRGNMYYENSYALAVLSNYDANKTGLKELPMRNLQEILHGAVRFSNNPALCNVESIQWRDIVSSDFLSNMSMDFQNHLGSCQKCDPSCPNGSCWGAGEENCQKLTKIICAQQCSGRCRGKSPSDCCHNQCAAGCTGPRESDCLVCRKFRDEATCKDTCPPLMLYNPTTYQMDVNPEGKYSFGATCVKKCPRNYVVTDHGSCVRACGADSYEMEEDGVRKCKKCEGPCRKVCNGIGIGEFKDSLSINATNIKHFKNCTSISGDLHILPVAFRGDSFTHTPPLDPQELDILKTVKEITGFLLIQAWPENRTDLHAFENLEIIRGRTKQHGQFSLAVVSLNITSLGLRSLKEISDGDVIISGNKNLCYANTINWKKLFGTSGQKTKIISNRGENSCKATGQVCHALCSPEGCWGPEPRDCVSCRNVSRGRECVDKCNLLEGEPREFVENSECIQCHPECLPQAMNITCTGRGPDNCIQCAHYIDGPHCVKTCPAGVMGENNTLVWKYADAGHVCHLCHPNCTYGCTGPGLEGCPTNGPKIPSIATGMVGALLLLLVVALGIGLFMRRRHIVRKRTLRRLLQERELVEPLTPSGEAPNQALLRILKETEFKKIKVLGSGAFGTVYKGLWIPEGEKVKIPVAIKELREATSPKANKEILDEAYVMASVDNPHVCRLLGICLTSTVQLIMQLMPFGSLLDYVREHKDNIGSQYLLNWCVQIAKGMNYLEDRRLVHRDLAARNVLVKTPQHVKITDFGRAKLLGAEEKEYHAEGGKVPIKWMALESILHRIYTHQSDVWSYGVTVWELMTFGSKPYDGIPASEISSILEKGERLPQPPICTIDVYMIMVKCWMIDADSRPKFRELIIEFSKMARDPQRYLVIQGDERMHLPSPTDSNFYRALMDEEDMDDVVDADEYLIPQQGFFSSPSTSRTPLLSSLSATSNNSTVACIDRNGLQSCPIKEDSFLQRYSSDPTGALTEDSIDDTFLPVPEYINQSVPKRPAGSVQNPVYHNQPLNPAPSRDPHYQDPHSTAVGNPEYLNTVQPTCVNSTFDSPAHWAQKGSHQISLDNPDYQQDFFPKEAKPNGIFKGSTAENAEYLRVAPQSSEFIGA
Sequence of Ba/F3 EGFR Del19/T790M mutants (P00533 with tags, fused parts or gaps DEL746-750/T790M, form open): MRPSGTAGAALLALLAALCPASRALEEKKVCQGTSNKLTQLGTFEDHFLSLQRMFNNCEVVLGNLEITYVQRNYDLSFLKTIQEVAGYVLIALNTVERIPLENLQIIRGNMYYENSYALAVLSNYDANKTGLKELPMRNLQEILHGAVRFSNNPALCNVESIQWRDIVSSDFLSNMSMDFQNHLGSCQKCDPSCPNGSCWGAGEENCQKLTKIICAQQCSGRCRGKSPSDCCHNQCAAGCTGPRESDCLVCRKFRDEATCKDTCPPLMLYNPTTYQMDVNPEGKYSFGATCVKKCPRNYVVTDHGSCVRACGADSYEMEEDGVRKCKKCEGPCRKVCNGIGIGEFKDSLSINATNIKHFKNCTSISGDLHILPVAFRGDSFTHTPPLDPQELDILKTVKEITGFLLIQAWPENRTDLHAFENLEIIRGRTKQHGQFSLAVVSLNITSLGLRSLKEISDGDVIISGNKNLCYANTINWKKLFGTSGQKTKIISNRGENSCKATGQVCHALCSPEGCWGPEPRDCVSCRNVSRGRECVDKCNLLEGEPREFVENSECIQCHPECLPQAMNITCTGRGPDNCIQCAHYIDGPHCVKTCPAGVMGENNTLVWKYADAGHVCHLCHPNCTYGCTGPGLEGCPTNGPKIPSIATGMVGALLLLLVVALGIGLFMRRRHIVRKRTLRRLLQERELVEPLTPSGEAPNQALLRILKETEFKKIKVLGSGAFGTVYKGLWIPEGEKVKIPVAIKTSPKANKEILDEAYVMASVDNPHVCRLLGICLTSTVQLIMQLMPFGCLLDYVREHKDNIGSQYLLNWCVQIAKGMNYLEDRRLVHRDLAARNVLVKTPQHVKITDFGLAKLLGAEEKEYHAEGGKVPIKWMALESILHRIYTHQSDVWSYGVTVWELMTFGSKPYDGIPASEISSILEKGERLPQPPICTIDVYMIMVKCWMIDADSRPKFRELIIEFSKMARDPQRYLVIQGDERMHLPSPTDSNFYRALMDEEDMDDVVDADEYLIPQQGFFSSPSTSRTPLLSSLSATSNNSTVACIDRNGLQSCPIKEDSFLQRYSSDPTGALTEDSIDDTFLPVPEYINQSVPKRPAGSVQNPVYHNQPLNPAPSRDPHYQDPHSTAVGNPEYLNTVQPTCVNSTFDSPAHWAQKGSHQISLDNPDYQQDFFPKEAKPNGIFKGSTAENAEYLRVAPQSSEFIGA

In the case of `CCc1cc(Nc2ncc(Br)c(Nc3ccc4nccnc4c3N(C)S(C)(=O)=O)n2)c(OC)cc1N1CC2(CCN2C(C)C)C1` [Example B31, N-(6-((5-bromo-2-((5-ethyl-4-(1-isopropyl-1,6-diazaspiro[3.3]heptan-6-yl)-2-methoxyphenyl)amino)pyrimidin-4-yl)amino)quinoxalin-5-yl)-N-methylmethanesulfonamide], the GI50 at Ba/F3 EGFR Wild-type came to 482 nM; in test [1] it was 43 nM; in test [2], 43 nM; in test [3], 8 nM; in test [4], 15 nM; in test [5] it was 6 nM.
